{"source": "PubChem BioAssay AID1219", "about": "(NMMLSC, 2008)", "note": "Records with an inconclusive call do not appear. Active and inactive are the calls of the source.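 How the source made its calls: active means score of 100, fluorescent reporter fully moved to nucleus as with estrogen, or estrogen effect fully blocked; inactive means score of 0 or 50, partial or no effect.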"}
{"biological_target": "G-protein coupled estrogen receptor 1 (Homo sapiens) (UniProt Q99527)", "test": "PH-RFP redistribution after GPER stimulation – imaging, Cos7 GPR30-GFP, Akt PH domain, orthogonal assay for GPR30 ligand project, confirmation (AID 1219)", "details": "PIP3 nuclear translocation imaging, at 10 µM, hits give high values"}
{"smiles": "Cc1cc(C)c2c(c1)[C@@H]1C=CC[C@@H]1[C@H](c1ccc(S(=O)(=O)N3CCOCC3)cc1)N2", "translocation response score": 100}
{"smiles": "Nc1ncnc2c1ncn2C1CCC(CO)C(O)C1", "note": "(configuration not stated)", "translocation response score": "50 (inactive)"}
{"smiles": "Cc1cc(-c2nn3c(-c4ccccc4)nnc3s2)c2ccccc2n1", "translocation response score": 100}
{"smiles": "COc1cccc(NS(=O)(=O)c2ccc3c(c2)C2C=CCC2C(c2ccc(C(=O)O)cc2)N3)c1", "note": "(configuration not stated)", "translocation response score": "50 (inactive)"}
{"smiles": "COc1ccccc1N1CCN(C(=O)c2ccc3nc(-c4ccco4)c(-c4ccco4)nc3c2)CC1", "translocation response score": 100}
{"smiles": "O=C(O)c1ccc2c(c1)C1C(Cl)C(Sc3ccccc3[N+](=O)[O-])CC1C(c1cccc([N+](=O)[O-])c1)N2", "note": "(configuration not stated)", "translocation response score": "0 (inactive)"}
{"smiles": "O=C(O)c1cc(Cl)c2c(c1)[C@@H]1C=CC[C@@H]1[C@H](c1ccc(S(=O)(=O)N3CCOCC3)cc1)N2", "translocation response score": "50 (inactive)"}
